System: MiaPaCa-2 cells
Assay: MiaPaCa-2 Cell proliferation assay in 3D culture (CCK8)
Assay type: cell-based
Details: Homo sapiens, MIA PaCa-2, 120 h; 3D spheroid culture, 5 days with compound, CCK8 readout
Experimental: MiaPaCa-2 Cell proliferation assay in 3D culture. To evaluate cell viability, MiaPaCa-2 cells in logarithmic growth phase were seeded at optimal density and grown in as spheroids. Cells were incubated for 24 hours prior to the addition of different concentrations of the compounds. Cells were cultured with the compounds for 5 days and the cell viability was assessed using CCK8. Briefly, 2500 cells were seeded in round bottom ultra-low attachment 96 well plates (coming) in growth media supplemented with 10% FBS and incubated at 37° C. for 24 hours. The compounds were dissolved in DMSO (Sigma) to obtain 10 mM stock solution. Then the compounds were serially diluted in 3-fold to ten concentrations; 5 μL of the dilution above was transferred to 95 uL culture media to obtain the 50× compound stock solution; 4 uL of the 50× compound above was then transferred to the wells containing cells with 196 μL of the culture medium to obtain the final 1× concentration. The final concentration of DMSO was 0.1%. Spheroid cells were incubated in compounds for 5 days. Then 20 μL WST-8 solution (DOJINDO, Cell Counting KIT-8) was added to each well. The plates were further incubated at 37° C. for 1.5 hours, and then absorbance at 450 nm was measured using a microplate reader. Each compound was tested in triplicate and the IC50 value was calculated using GraphPad Prism.
The IC50 values of for Compounds disclosed are listed in Table 2, A: ≤500 nM; B: >500 nM and ≤5 μM; C: >5 μM and ≤50 μM; and D: >50 μM.

| IC50 [nM] | Compound |
| --- | --- |
| ≤ 500 | C[C@@H]1OCC2(CCN(c3cnc(Sc4cccc(NC(=O)NS(=O)(=O)C5CCOC5)c4Cl)cn3)CC2)[C@@H]1N (stereo partly drawn) [Example 83, N-((3-((5-((3S,4S)-4-amino-3-methyl-2-oxa-8-azaspiro[4.5]decan-8-yl)pyrazin-2-yl)thio)-2-chlorophenyl)carbamoyl)tetrahydrofuran-3-sulfonamide] |
| ≤ 500 | C[C@@H]1OCC2(CCN(c3cnc(Sc4cccc(NC(=O)NS(=O)(=O)N5CCC(N)C5)c4Cl)cn3)CC2)[C@@H]1N (stereo partly drawn) [Example 84, 3-amino-N-((3-((5-((3S,4S)-4-amino-3-methyl-2-oxa-8-azaspiro[4.5]decan-8-yl)pyrazin-2-yl)thio)-2-chlorophenyl)carbamoyl)pyrrolidine-1-sulfonamide] |

Continued, compound first:

| Compound | IC50 [nM] |
| --- | --- |
| C[C@@H]1OCC2(CCN(c3cnc(Sc4cccc(NC(=O)NS(=O)(=O)c5ccc(F)cc5)c4Cl)cn3)CC2)[C@@H]1N [Example 78, N-((3-((5-((3S,4S)-4-amino-3-methyl-2-oxa-8-azaspiro[4.5]decan-8-yl)pyrazin-2-yl)thio)-2-chlorophenyl)carbamoyl)-4-fluorobenzenesulfonamide] | ≤ 500 |
| C[C@@H]1OCC2(CCN(c3cnc(Sc4cccc(NC(=O)NS(=O)(=O)c5cnn(C)c5)c4Cl)cn3)CC2)[C@@H]1N [Example 79, N-((3-((5-((3S,4S)-4-amino-3-methyl-2-oxa-8-azaspiro[4.5]decan-8-yl)pyrazin-2-yl)thio)-2-chlorophenyl)carbamoyl)-1-methyl-1H-pyrazole-4-sulfonamide] | ≤ 500 |
| C[C@@H]1OCC2(CCN(c3cnc(Sc4cccc(NS(=O)(=O)NC(=O)c5ccccc5)c4Cl)cn3)CC2)[C@@H]1N [Example 80, N—(N-(3-((5-((3S,4S)-4-amino-3-methyl-2-oxa-8-azaspiro[4.5]decan-8-yl)pyrazin-2-yl)thio)-2-chlorophenyl)sulfamoyl)benzamide] | ≤ 500 |
| C[C@@H]1OCC2(CCN(c3cnc(Sc4cccc(NC(=O)NS(=O)(=O)N5CCC(O)C5)c4Cl)cn3)CC2)[C@@H]1N (stereo partly drawn) [Example 81, N-((3-((5-((3S,4S)-4-amino-3-methyl-2-oxa-8-azaspiro[4.5]decan-8-yl)pyrazin-2-yl)thio)-2-chlorophenyl)carbamoyl)-3-hydroxypyrrolidine-1-sulfonamide] | ≤ 500 |
| C[C@@H]1OCC2(CCN(c3cnc(Sc4cccc(NC(=O)NS(=O)(=O)C5CCC5)c4Cl)cn3)CC2)[C@@H]1N [Example 82, N-((3-((5-((3S,4S)-4-amino-3-methyl-2-oxa-8-azaspiro[4.5]decan-8-yl)pyrazin-2-yl)thio)-2-chlorophenyl)carbamoyl)cyclobutanesulfonamide] | ≤ 500 |
